We go through one substance from PMC5870190, “A three-in-one-bullet for oesophageal cancer: replication fork collapse, spindle attachment failure and enhanced radiosensitivity generated by a ruthenium(II) metallo-intercalator” (Chemical Science, 2017).

Data set [1] deals with OE33 human oesophageal adenocarcinoma. Put plainly: MTT assay, OE33 cells. Format: cell-based. How it is done: (§1) MTT assay. OE21, FLO-1 or hSAEC1-KT cells were seeded in 96 well plates at 20,000 cells/well (for 24 h treatment) or 10,000 cells/well (for 72 h treatment) and allowed to adhere for 24 h before treatment. OE33 cells were seeded in 48 well plates at 40,000 cells/well (24 h treatment) or 20,000 cells/well (72 h treatment). Cancer cell lines were treated with chemicals dissolved in RPMI media for consistency. After incubation, 0.5 mg/ml MTT (thiazolyl blue tetrazolium bromide) dissolved in serum-free medium was added for 60 minutes and the formazan product eluted using acidified isopropanol.
(§2) The absorbance at 540 nm was quantified by plate reader (reference wavelength 650 nm). The metabolic activity of the cell population was determined as a percentage of a negative (solvent) control. […]
(§3) For the determination of mutation induction, from the untreated and each treated condition, 2x10^5 cells were plated in 10 x 100 mm dishes in selective media (regular media

The subject of data set [2] is FLO-1 human oesophageal adenocarcinoma. Put plainly: MTT assay, FLO-1 cells. Format: cell-based. As for the experimental part:
as §1, §2, §3

Data set [3] relates to V79 Chinese hamster cells. Nature of the data set: HPRT forward mutation assay. The class given is cell-based. As for the experimental part:
(§4) propidium iodide (PI) is standard to quantify DNA content using flow cytometry, bleed-through of the MLCT emission of […]
(§5) To remove these artefacts, a higher concentration of Ru1 (100 µM, 10 mins) was additionally applied post-incubation and fixation to treated and control samples, acting as a substitute DNA dye instead of PI. After staining, cells were centrifuged (1000 rpm, 5 mins) and re-suspended in PBS.
(§6) Samples were analysed using a Biosciences LSRII Flow Cytometer using the FL2 channel to collect (recognisable) cell-cycle […]
(§7) profiles. […] A minimum of
(§8) 10,000 cells were counted for each sample and data were processed using FloJo software.
Microscopy and immunofluorescence. Cells were seeded on ibidi 35 mm µ-dishes (Thistle Scientific), allowed to adhere for 24 h and treated as stated in the main text. Cell media was removed, cells washed with PBS and fixed with formaldehyde (4%, 10 mins). Cells were permeablised with Triton (0.5% in PBS, 5 mins) and washed with PBS. […]
(§9) emission was collected from 500-530 nm to prevent spectral overlap with Ru1 emission. γH2AX foci were counted using […]
as §2
Cell cultures were treated as stated, media containing detached/dead cells were removed and retained, and adherent collected by Trypsin and centrifugation. […] Trypan Blue negative and Trypan Blue positive cells were counted by haemocytometer. A minimum of 200 cells were counted for each sample.
HPRT (hypoxanthine-guanine phosphoribosyl transferase) forward mutation assay. […] The cultures were washed with PBS, cells were detached by trypsin (0.05%) and cell number was determined. […] After 7 days' incubation, the resulting colonies were stained with methylene blue and those containing 100 or more cells were counted. Cloning efficiency was determined and is usually expressed in percent relative to the […]

The test system of data set [4] is OE21 cells. Put plainly: Trypan Blue exclusion assay. Format: cell-based, human. Conditions: OE21, Ru1 21 μM. As for the experimental part:
Trypan Blue exclusion assay. OE21 cells were seeded in 6 well plates at 40,000 cells/well and allowed to adhere for 24 h.
Cell cultures were treated as stated, media containing detached/dead cells were removed and retained, and adherent collected by Trypsin and centrifugation. Adherent and detached cells for each sample were combined, concentrated via centrifugation and re-suspended in 0.5 ml PBS containing 0.04% Trypan Blue solution. Trypan Blue negative and Trypan Blue positive cells were counted by haemocytometer. A minimum of 200 cells were counted for each sample. […]
as §3

The subject of data set [5] is OE21 cells. Put plainly: Micronuclei formation, OE21. The class given is cell-based, human. The note with it: 20 μM Ru1, 24 h incubation. How it is done:
as §4, §5, §6, §7, §8
(§10) Microscopy and immunofluorescence. […]
as §9, §2
(§11) Cell cultures were treated as stated, media containing detached/dead cells were removed and retained, and adherent collected by Trypsin and centrifugation. […] Trypan Blue negative and Trypan Blue positive cells were counted by haemocytometer. A minimum of 200 cells were counted for each sample. […]

The next data set deals with OE33 cells. Put plainly: Micronuclei formation, OE33. Format: cell-based, human. Conditions: OE33, 45 μM Ru1, 24 h incubation. As for the experimental part: as §4, §5, §6, §7, §8, §10, §9, §2, §11
Data set [6] relates to OE21, OE33 or FLO-1 cells. Put plainly: Clonogenic survival assay with IR, three oesophageal cancer cell lines. Format: cell-based, human. As for the experimental part: Clonogenic survival assay. OE21, OE33 or FLO1 cells were treated with 2 µM Ru1 for 24 h before irradiation with 0-8 Gy using a 137Cs γ-irradiator (IBL637, CIS Bio Int.; dose rate = 0.809 Gy min−1). 1 h after irradiation, cells were detached using Trypsin and re-seeded in 6 well plates at a density of 300 – 20,000 cells/well in triplicate in an incrementally greater number of cells with increasing IR dose to ensure adequate colony formation. Cells were incubated for 7–14 days after re-seeding to allow colony formation before being fixed with 10% methanol, 10% acetic acid and stained with 0.4% methylene blue. OE33 cells required an additional formaldehyde fixation (4% in PBS, 5 mins) step before the addition of methylene blue solution or colony detachment occurred. Colonies containing 50 cells or greater were counted using a Gelcount instrument and accompanying software (Oxford Optronix). Plating efficiencies were determined for each treatment condition and normalised to an untreated control to provide the surviving fraction (S. F.). S.F. versus radiation dose curves were plotted in GraphPad Prism and fit using a second order polynomial function (R2 values > 0.99). Dose modifying factors (DMF) at a SF=0.1 were calculated using the equation: Dose modifying factor (DMF) = IR dose to give S.F. 0.1/IR dose plus compound to give S.F.0.1. […]

In the case of [Ru(phen)2(tpphz)]^2+ [Ru1], the IC50 in data set [1] (OE33, 24 h constant exposure) worked out at 44.5 ± 3.5 µM; in data set [1] (OE33, 72 h constant exposure), 27 ± 2.8 µM; in data set [2] (FLO1, 24 h constant exposure), 42 ± 8 µM; in data set [2] (FLO1, 72 h constant exposure), 11.5 ± 2.1 µM. For the same substance, the “M.F. (mutation frequency)” value in data set [3] (2 μM of each complex for 24 h) is 36.7 ± 7.3 6-TG resistant mutations per 1 × 10^5 viable cells. For the same substance, the “Rel. M.F. (ratio of induced to spontaneous mutations)” value in data set [3] (2 μM of each complex for 24 h) amounted to 5.8. Further, the “mutation rate lower than for cisplatin” value in data set [3] (HPRT assay, V79, 2 μM, 24 h) is given as “two-fold”. Further, the “necrotic cell death (Trypan blue staining)” value in the data set on OE21 cells [4] is on record as roughly 20%. Also, the “Cells with micronuclei, Percentage” value with OE21 cells [5] (OE21 (n=1)) came to 17.8%; in the data set on OE21 cells [5] (OE21 (n=2)) it was 15.0%; in the data set on OE33 cells, 3.4%. Moreover, the “surviving fraction (S.F.), single-agent” value in data set [6] (2 μM, 24 h, no IR, all three cell lines) is greater than 0.87. The “dose modification factor (DMF) at surviving fraction of 0.1” value in data set [6] (Ru1 2 μM or sub-cytotoxic cisplatin (500 nM OE21 and OE33, 300 nM FLO-1), 24 h before IR, range over three cell lines) is recorded as 1.19–1.31.
